In ChEMBL document CHEMBL1909046, “DrugMatrix in vitro pharmacology data” one finds IC50 and Ki data, which are given here for eight molecules.

Where a SMILES comes first, the peptide text is derived from it. Bridges are numbered along the chain shown (N, C = ends). [ ]: non-standard residue; d: D form. The star is where a group is joined. Ileψ(thiazoline)Cys = CC[C@H](C)[C@H](N)C1=N[C@H](C(=O)*)CS1; dOrn = NCCC[C@@H](N)C(=O)O

The nature of data set [1]: DRUGMATRIX: GABAA, Flunitrazepam, Central radioligand binding (ligand: [3H] Flunitrazepam). It counts as cell membranes, Rattus norvegicus, Wistar, Brain, Membrane. As to conditions: Not Active = under 50% inhibition at 10 µM.
For a further data set, the target named is Insulin receptor (Rattus norvegicus, UniProt P15127). It counts as cell membranes, Wistar, Liver, Membrane. Note: in other assays of this panel Not Active means under 50% inhibition at 10 µM.
In a further data set the target is T1, Adenosine receptor A1 (Homo sapiens, UniProt P30542).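 Note: radioligand binding assay at the adenosine A1 receptor, with DPCPX serving as the labelled ligand; in other assays of this panel Not Active means under 50% inhibition at 10 µM.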
T1 sequence (P30542 whole entry): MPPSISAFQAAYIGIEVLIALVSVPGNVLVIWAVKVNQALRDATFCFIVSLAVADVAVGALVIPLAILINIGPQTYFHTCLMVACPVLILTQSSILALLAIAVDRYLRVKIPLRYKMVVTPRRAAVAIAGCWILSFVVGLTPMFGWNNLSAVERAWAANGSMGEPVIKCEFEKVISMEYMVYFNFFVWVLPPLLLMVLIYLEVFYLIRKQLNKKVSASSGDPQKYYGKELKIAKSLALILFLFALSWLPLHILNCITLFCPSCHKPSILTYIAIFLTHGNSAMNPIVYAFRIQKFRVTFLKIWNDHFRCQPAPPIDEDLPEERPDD
It counts as cell membranes, CHO, Membrane. As to conditions: cho.

For data set [2], the target named is T2, Alpha-2A adrenergic receptor (Homo sapiens, UniProt P08913). Note: in other assays of this panel Not Active means under 50% inhibition at 10 µM.
T2 sequence (P08913 whole entry): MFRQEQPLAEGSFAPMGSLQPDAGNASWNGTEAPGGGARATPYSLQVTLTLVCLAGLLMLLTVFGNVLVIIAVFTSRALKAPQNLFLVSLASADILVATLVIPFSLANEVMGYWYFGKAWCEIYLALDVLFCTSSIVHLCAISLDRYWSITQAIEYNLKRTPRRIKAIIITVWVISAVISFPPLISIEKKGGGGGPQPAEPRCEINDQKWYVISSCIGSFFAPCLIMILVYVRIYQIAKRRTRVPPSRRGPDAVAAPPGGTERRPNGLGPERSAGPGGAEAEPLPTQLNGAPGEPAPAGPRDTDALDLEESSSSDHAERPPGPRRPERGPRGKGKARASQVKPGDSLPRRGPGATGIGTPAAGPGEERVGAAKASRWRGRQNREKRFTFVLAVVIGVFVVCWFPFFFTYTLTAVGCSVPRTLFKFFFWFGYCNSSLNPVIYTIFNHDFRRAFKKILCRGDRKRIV
It counts as cell membranes, Sf9, Membrane. As to conditions: sf9.

The target of data set [3] is T3, Type-2 angiotensin II receptor (Homo sapiens, UniProt P50052). Note: in other assays of this panel Not Active means under 50% inhibition at 10 µM.
T3 sequence (P50052 whole entry): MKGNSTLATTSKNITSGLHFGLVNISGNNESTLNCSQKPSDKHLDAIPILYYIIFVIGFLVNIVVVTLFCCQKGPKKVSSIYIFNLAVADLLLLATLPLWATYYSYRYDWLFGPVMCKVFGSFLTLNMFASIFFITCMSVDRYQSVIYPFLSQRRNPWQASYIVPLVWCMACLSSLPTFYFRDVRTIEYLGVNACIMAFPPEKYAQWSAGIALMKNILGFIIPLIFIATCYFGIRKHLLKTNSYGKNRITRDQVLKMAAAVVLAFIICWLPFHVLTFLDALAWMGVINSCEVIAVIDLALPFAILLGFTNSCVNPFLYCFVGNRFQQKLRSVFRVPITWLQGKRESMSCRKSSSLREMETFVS
It counts as cell-based. As to conditions: cho-k1.

The target in data set [4] is Receptor tyrosine-protein kinase erbB-2 (Homo sapiens, UniProt P04626). Kind of data set: biochemical. It counts as cell-based, Insect cells. The conditions noted are these: insect cells.
Data set [5] can be described thus: DRUGMATRIX: Calcium Channel Type L, Phenylalkylamine radioligand binding (ligand: [3H] (-)-Desmethoxyverapamil (D-888)). It counts as cell membranes, Rattus norvegicus, Wistar, Brain, Membrane. As to conditions: Not Active = under 50% inhibition at 10 µM.
The target of data set [6] is T4, Alpha-2C adrenergic receptor (Homo sapiens, UniProt P18825).
T4 sequence (P18825 whole entry): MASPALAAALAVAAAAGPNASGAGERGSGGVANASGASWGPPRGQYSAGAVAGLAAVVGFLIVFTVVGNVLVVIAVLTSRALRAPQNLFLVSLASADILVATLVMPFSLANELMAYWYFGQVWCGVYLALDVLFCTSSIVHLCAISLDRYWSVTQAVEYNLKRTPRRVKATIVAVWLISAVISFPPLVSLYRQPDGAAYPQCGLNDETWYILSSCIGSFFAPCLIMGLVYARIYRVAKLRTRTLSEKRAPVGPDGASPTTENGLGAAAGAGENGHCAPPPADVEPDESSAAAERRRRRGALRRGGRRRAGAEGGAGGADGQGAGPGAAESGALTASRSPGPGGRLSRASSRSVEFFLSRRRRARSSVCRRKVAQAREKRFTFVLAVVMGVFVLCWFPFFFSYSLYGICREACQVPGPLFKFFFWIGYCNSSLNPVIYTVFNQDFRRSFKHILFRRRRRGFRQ
The data set can be described thus: DRUGMATRIX: Adrenergic Alpha-2C radioligand binding (ligand: [3H] MK-912). The conditions noted are these: sf9. It counts as cell membranes, Sf9, Membrane.

Data set [7] deals with Voltage-gated inwardly rectifying potassium channel KCNH2 (Homo sapiens, UniProt Q12809). The conditions noted are these: hek293.
Data set [8] concerns the target 5-hydroxytryptamine receptor 1B (Rattus norvegicus, UniProt P28564). It counts as cell membranes, Wistar, Cerebral cortex, Membrane. Note: in other assays of this panel Not Active means under 50% inhibition at 10 µM.
Data set [9] deals with T5, Neuropeptide Y receptor type 2 (Homo sapiens, UniProt P49146).
T5 sequence (P49146 whole entry): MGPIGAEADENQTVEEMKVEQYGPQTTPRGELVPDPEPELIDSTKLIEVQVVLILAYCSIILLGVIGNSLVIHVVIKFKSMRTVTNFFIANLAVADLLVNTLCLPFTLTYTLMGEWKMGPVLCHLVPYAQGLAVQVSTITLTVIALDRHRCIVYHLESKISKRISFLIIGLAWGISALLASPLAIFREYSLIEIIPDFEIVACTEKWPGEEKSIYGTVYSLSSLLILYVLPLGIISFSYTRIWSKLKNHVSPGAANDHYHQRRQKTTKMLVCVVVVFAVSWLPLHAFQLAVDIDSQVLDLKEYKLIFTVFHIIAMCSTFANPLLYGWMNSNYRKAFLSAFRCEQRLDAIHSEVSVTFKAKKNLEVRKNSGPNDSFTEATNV
It counts as cell membranes, Membrane. The conditions noted are these: kan-ts.

Data set [10] deals with Beta-1 adrenergic receptor (Homo sapiens, UniProt P08588). Kind of data set: DRUGMATRIX: Adrenergic beta1 radioligand binding (ligand: [125I] Cyanopindolol). It counts as cell membranes, CHO-K1, Membrane. As to conditions: cho-k1; Not Active = under 50% inhibition at 10 µM.
Beta-1 adrenergic receptor, sequence (P08588 whole entry): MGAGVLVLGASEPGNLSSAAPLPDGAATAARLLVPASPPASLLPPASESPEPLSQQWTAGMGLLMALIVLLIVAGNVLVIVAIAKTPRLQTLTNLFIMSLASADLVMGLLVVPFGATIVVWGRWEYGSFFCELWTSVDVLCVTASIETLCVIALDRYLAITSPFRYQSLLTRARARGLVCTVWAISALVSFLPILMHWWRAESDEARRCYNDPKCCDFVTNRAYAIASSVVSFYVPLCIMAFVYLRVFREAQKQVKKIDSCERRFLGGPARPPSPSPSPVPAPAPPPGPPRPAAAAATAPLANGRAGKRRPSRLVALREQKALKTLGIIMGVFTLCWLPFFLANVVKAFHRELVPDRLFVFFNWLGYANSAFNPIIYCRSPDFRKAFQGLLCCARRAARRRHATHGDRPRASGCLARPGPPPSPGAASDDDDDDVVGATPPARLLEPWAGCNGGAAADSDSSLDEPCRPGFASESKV

Voltage-gated inwardly rectifying potassium channel KCNH2, sequence (Q12809 whole entry): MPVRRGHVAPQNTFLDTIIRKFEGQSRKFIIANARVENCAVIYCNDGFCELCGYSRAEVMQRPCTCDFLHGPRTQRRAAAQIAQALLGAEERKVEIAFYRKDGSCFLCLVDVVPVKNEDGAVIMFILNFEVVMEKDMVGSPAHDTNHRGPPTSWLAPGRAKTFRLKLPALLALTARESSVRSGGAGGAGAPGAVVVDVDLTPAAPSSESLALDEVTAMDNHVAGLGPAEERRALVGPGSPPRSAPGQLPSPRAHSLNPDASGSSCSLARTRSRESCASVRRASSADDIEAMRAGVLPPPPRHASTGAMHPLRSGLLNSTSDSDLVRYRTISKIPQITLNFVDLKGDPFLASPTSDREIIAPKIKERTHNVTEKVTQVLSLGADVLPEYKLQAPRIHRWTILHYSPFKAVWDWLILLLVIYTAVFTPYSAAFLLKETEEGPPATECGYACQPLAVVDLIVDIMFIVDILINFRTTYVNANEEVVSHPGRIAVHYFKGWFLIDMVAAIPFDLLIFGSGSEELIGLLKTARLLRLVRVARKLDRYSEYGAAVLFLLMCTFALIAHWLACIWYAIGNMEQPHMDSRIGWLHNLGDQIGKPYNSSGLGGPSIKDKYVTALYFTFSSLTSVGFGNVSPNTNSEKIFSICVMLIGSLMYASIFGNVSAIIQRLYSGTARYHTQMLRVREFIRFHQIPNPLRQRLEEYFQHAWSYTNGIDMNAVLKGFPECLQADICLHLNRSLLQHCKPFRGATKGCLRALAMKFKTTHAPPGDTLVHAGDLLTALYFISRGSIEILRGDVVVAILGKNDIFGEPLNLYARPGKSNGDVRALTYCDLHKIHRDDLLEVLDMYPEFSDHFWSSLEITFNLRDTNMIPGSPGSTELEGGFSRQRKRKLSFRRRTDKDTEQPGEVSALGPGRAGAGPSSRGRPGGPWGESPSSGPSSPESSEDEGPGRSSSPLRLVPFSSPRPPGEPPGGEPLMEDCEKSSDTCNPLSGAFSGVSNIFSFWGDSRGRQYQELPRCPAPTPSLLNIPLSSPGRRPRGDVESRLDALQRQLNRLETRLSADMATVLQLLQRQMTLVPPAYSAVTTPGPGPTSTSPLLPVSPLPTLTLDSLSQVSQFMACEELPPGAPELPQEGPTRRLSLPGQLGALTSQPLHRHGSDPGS
Receptor tyrosine-protein kinase erbB-2, sequence (P04626 whole entry): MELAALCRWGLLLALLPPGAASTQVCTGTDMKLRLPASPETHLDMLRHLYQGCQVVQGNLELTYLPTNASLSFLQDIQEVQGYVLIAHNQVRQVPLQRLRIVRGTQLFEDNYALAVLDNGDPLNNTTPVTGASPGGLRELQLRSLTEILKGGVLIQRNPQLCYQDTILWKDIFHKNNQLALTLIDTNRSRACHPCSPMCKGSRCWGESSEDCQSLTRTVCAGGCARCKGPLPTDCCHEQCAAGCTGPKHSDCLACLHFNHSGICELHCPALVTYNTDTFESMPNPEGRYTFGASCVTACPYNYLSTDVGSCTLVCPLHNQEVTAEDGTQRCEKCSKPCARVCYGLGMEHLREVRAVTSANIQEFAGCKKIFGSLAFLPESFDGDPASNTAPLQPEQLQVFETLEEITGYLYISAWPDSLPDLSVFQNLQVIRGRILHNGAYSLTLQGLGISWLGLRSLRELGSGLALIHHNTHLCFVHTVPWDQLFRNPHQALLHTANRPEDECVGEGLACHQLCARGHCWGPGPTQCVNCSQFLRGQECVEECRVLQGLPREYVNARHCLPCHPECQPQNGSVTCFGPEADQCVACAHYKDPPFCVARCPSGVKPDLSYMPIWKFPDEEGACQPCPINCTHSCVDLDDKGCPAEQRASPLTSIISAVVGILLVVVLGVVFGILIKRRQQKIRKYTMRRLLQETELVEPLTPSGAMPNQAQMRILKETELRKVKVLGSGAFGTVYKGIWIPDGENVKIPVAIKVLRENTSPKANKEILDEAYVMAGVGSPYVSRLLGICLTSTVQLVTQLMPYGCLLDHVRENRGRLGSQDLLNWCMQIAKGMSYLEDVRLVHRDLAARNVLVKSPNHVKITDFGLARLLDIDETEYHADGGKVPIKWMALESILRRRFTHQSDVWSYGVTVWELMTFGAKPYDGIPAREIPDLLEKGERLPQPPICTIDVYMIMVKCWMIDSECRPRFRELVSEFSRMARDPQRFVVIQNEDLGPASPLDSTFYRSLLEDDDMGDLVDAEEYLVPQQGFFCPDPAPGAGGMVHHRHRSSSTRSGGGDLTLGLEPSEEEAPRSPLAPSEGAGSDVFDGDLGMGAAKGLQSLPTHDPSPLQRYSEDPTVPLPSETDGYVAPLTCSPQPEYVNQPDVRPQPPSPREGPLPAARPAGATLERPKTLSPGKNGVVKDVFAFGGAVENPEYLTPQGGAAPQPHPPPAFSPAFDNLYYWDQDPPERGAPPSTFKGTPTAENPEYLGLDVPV
5-hydroxytryptamine receptor 1B, sequence (P28564 whole entry): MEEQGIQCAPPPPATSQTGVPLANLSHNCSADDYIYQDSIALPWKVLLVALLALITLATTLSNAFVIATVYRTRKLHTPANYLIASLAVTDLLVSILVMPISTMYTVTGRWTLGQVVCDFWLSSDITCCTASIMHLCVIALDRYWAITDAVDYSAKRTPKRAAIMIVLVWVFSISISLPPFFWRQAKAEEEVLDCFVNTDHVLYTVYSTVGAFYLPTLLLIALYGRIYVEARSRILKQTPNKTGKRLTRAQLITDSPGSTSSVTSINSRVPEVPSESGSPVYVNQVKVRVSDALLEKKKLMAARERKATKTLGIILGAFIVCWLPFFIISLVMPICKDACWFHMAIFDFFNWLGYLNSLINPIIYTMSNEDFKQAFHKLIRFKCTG
Insulin receptor, sequence (P15127 27-759 limits assumed): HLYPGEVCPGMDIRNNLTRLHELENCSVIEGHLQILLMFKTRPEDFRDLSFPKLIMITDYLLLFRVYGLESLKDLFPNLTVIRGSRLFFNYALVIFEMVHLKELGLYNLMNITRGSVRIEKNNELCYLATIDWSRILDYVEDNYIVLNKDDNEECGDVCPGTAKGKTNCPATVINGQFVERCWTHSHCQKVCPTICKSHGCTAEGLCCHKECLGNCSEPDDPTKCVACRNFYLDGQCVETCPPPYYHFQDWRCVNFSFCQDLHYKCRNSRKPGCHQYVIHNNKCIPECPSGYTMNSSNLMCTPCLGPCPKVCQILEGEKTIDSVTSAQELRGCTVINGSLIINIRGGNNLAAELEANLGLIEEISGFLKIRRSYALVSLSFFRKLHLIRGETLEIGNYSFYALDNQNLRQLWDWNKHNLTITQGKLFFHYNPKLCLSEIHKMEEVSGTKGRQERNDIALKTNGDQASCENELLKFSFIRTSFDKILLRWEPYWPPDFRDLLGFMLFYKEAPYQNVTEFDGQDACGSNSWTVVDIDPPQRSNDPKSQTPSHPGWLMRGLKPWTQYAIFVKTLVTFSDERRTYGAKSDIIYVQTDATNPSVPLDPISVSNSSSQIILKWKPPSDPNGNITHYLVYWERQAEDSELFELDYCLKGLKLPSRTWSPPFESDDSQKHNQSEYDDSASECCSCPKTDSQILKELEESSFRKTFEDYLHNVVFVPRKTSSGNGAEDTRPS
Insulin receptor, sequence (P15127 764-1383 limits assumed): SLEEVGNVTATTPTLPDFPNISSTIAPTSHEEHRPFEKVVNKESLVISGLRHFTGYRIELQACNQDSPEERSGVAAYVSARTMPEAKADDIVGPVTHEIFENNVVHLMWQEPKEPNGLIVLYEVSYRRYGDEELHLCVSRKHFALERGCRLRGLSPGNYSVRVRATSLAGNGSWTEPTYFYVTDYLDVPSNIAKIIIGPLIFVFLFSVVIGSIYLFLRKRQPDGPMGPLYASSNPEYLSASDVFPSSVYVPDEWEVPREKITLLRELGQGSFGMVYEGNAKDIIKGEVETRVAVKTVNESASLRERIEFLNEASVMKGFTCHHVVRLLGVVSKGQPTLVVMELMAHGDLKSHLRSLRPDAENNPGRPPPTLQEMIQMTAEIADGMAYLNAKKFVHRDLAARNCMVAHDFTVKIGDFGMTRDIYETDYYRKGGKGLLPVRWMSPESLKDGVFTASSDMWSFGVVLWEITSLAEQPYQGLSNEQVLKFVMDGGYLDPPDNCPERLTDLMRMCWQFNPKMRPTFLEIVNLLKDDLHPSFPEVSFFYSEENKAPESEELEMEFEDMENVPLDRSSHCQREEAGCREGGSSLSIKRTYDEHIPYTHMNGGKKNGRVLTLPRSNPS

As to `CC(C)NC[C@H](O)COc1cccc2[nH]ccc12`, the IC50 result (in [1]; at Insulin receptor; against Adenosine receptor A1; in data set [2]; in [3]; in data set [4]) was “Not Active” in each case. The half-inhibitory concentration (IC50) entry in data set [5], in data set [6], in data set [7], in data set [8] and in [9] was “Not Active” in each case. For the same molecule, the inhibition constant (Ki) entry in [1], in [5] and in data set [7] was “Not Active” throughout.
`CC1(C)S[C@@H]2[C@H](NC(=O)[C@H](N)c3ccc(O)cc3)C(=O)N2[C@H]1C(=O)O` [AMOXICILLIN]: the concentration for half-maximal inhibition (IC50) result (in data set [1]; against Insulin receptor; against Adenosine receptor A1; in data set [2]; in [3]; in [4]) was “Not Active” each time. Besides, the IC50 entry in [5], in [6], in [10], in [8] and in data set [9] was “Not Active” each time. Also, the Ki entry in data set [1] and in data set [5] was “Not Active” in each case.
As for `N=C(N)NCCCCNC(=N)N.O=S(=O)(O)O` [ARCAINE SULFATE], the 50% inhibitory concentration (IC50) result (in data set [1]; at Insulin receptor; against Adenosine receptor A1; in data set [2]; in data set [3]; in [4]) was “Not Active” throughout. For the same molecule, the IC50 entry in data set [5], in data set [6], in data set [7], in [8] and in [9] was “Not Active” in each case. The Ki entry in data set [1], in [5] and in data set [7] was “Not Active” in each case.
Consider `CC[C@H](C)[C@H](N)C1=N[C@H](C(=O)N[C@@H](CC(C)C)C(=O)N[C@H](CCC(=O)O)C(=O)N[C@H](C(=O)N[C@H]2CCCCNC(=O)[C@H](CC(N)=O)NC(=O)[C@@H](CC(=O)O)NC(=O)[C@H](Cc3cnc[nH]3)NC(=O)[C@@H](Cc3ccccc3)NC(=O)[C@H]([C@@H](C)CC)NC(=O)[C@@H](CCCN)NC2=O)[C@@H](C)CC)CS1` [BACITRACIN] ({Ileψ(thiazoline)Cys}-L[dE]IK[dOrn]I[dF]H[dD]N; lactam 4-C), for which the IC50 entry (in data set [1]; against Insulin receptor; against Adenosine receptor A1; in [2]; in data set [3]; in [4]) was “Not Active” throughout. Further, the concentration for half-maximal inhibition (IC50) result in data set [5], in [6], in data set [10], in data set [7] and in [9] was “Not Active” in each case. For the same molecule, the Ki entry in data set [1], in data set [5] and in [7] was “Not Active” throughout.
`O=C(O)c1cn(C2CC2)c2cc(N3CCNCC3)c(F)cc2c1=O` [CIPROFLOXACIN]: the IC50 result (in [1]; on Insulin receptor; against Adenosine receptor A1; in data set [2]; in data set [3]; in data set [4]) was “Not Active” in each case. Besides, the 50% inhibitory concentration (IC50) entry in data set [5], in data set [6], in data set [10], in data set [8] and in data set [9] was “Not Active” each time. Besides, the inhibitory constant (Ki) result in data set [1] and in data set [5] was “Not Active” in each case.
As to `CN(C)CCCC1(c2ccc(F)cc2)OCc2cc(C#N)ccc21` (centres undefined) [CITALOPRAM], the IC50 result (in data set [1]; at Insulin receptor; against Adenosine receptor A1; in data set [2]; in data set [3]; in data set [4]) was “Not Active” throughout. Besides, the half-maximal inhibitory concentration (IC50) in [5] (read-out: IC50) is 1020 nM; in [6], “Not Active”; in data set [10] it was “Not Active”; in data set [8] it was “Not Active”; in [9], “Not Active”. Moreover, the inhibitory constant (Ki) entry in data set [1] is “Not Active”; in [5] (read-out: Ki) it was 996 nM.
With `COC(=O)[C@H](c1ccccc1Cl)N1CCc2sccc2C1` [CLOPIDOGREL], the IC50 result (in data set [1]; at Insulin receptor; against Adenosine receptor A1; in [2]; in [3]; in data set [4]) was “Not Active” in each case. For the same molecule, the half-maximal inhibitory concentration (IC50) result in data set [5], in data set [6], in [7], in [8] and in data set [9] was “Not Active” throughout. The inhibitory constant (Ki) result in data set [1], in [5] and in [7] was “Not Active” each time.
Consider `CNCCC=C1c2ccccc2CCc2ccccc21` [NORTRIPTYLINE], for which the half-maximal inhibitory concentration (IC50) entry in data set [1] was “Not Active”; against Insulin receptor it was “Not Active”; on Adenosine receptor A1, “Not Active”; in data set [3], “Not Active”; in data set [4], “Not Active”; in [5] (read-out: IC50), 1890 nM. Moreover, the half-inhibitory concentration (IC50) result in data set [10] was “Not Active”; in [7], “Not Active”; in data set [8] (read-out: IC50) it was 3200 nM; in [9], “Not Active”. Further, the Ki result was “Not Active” in data set [1], 1840 nM in data set [5] (read-out: Ki), “Not Active” in [7] and 1450 nM in data set [8] (read-out: Ki).

As usually defined, the IC50 is the concentration needed to halve the response being measured. As a reminder, the Ki is the equilibrium dissociation constant of an inhibitor or competing ligand from its target.
